How the values were obtained:
Type in all cases: cell-based
[1] = molecular target: T1, Cav2.3 (Homo sapiens, UniProt Q15878); assay: Whole-cell patch clamp assay (QPatch) in HEK-293 T-Rex/Kir2.1/Cav2.3e-β4-α2δ1 cells; settings: QPatch 16X, room temperature, mean ± S.E, read-out: Cav2.3 (pIC50) (converted)
Procedure: HEK-293 T-Rex/Kir2.1/Cav2.3e-β4-α2δ1 cells were seeded 96 hours before experiment and doxycycline at 0.2 μg/mL was added 24 hours before experiment. Just before the experiments cells were washed twice with D-PBS w/o Ca^2+/Mg^2+ and gently detached from the flask with Detachin. Cells were then re-suspended in the suspension solution (25 mL EX-CELL ACF CHO medium; 0.25 mL of 100× Penicillin/Streptomycin) and placed on the Automated Patch-clamp platform (QPatch 16X).
Standard whole-cell voltage clamp experiments were performed at room temperature using the single hole technology and the following intracellular and extracellular solutions (ICS and ECS, respectively) were used. ICS (mM): CsF 60, CsCl 50, NaCl 10, EGTA 20, BAPTA 5, HEPES 10, NaGTP 0.3, MgATP 5 (pH 7.2; ECS (mM): NMDG-Cl 120, BaCl2 20, HEPES 10, EGTA 7 (pH 7.4). After establishment of the seal and the passage in the whole-cell configuration, the Cav2.3 dependent current was evoked by challenging the cells with the following voltage protocol: the plasma membrane was held at −80 mV then a 50 ms-long depolarizing pulse at 0 mV, followed by a 50 ms-long hyperpolarizing pulse at −100 mV were applied and finally the plasma membrane was held back to −80 mV. This voltage protocol was applied every 10 seconds. Cav2.3 dependent current was first measured in control condition (vehicle, 0.1% DMSO), in the presence of increasing concentration of the compound under investigation and finally SNX 482 was added to fully block any R-type Cav2.3 dependent current.
For data collection, the Sophion proprietary software was used while the analysis was performed off-line using Excel and GraphPad Prism. The inward current (Area Under Curve) measured during each depolarizing pulse was normalized to cell membrane capacitance (Cm) to obtain the average inward current density in each condition (control, compound under investigation and SNX 482). Then, the inhibitory effect of the compound under investigation was evaluated as % of the remaining inward current, normalized to the internal control. […] All data were expressed as mean±S.E

[2] = tested on: Human Cav2.3 channel; assay: Human Cav2.3 channel calcium-influx assay; settings: Fluo8 fluorescence, HEK-293 T-Rex/Kir2.1/Cav2.3e cells, without pluronic acid
In short: (§1)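 HEK-293 T-Rex/Kir2.1 cells with doxycycline (0.2 μg/mL)-inducible Cav2.3e plus Cavβ4-α2δ1, loaded with Fluo8 NW in 0 mM K+ Tyrode's. Compounds (8 points, top 30 μM, half-log, 0.3% final DMSO, n=4) preincubated 3 min at RT, then depolarized with 20 mM KCl/2 mM CaCl2 (final); fluorescence read 130 s.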

[3] = molecular target: T1, Cav2.3; assay: Human Cav2.3 channel calcium-influx assay; settings: Fluo8 fluorescence, HEK-293 T-Rex/Kir2.1/Cav2.3e cells, without pluronic acid, read-out: Cav2.3 (pIC50) (converted)
In short: as §1

T1 sequence (Q15878 whole entry, looked up): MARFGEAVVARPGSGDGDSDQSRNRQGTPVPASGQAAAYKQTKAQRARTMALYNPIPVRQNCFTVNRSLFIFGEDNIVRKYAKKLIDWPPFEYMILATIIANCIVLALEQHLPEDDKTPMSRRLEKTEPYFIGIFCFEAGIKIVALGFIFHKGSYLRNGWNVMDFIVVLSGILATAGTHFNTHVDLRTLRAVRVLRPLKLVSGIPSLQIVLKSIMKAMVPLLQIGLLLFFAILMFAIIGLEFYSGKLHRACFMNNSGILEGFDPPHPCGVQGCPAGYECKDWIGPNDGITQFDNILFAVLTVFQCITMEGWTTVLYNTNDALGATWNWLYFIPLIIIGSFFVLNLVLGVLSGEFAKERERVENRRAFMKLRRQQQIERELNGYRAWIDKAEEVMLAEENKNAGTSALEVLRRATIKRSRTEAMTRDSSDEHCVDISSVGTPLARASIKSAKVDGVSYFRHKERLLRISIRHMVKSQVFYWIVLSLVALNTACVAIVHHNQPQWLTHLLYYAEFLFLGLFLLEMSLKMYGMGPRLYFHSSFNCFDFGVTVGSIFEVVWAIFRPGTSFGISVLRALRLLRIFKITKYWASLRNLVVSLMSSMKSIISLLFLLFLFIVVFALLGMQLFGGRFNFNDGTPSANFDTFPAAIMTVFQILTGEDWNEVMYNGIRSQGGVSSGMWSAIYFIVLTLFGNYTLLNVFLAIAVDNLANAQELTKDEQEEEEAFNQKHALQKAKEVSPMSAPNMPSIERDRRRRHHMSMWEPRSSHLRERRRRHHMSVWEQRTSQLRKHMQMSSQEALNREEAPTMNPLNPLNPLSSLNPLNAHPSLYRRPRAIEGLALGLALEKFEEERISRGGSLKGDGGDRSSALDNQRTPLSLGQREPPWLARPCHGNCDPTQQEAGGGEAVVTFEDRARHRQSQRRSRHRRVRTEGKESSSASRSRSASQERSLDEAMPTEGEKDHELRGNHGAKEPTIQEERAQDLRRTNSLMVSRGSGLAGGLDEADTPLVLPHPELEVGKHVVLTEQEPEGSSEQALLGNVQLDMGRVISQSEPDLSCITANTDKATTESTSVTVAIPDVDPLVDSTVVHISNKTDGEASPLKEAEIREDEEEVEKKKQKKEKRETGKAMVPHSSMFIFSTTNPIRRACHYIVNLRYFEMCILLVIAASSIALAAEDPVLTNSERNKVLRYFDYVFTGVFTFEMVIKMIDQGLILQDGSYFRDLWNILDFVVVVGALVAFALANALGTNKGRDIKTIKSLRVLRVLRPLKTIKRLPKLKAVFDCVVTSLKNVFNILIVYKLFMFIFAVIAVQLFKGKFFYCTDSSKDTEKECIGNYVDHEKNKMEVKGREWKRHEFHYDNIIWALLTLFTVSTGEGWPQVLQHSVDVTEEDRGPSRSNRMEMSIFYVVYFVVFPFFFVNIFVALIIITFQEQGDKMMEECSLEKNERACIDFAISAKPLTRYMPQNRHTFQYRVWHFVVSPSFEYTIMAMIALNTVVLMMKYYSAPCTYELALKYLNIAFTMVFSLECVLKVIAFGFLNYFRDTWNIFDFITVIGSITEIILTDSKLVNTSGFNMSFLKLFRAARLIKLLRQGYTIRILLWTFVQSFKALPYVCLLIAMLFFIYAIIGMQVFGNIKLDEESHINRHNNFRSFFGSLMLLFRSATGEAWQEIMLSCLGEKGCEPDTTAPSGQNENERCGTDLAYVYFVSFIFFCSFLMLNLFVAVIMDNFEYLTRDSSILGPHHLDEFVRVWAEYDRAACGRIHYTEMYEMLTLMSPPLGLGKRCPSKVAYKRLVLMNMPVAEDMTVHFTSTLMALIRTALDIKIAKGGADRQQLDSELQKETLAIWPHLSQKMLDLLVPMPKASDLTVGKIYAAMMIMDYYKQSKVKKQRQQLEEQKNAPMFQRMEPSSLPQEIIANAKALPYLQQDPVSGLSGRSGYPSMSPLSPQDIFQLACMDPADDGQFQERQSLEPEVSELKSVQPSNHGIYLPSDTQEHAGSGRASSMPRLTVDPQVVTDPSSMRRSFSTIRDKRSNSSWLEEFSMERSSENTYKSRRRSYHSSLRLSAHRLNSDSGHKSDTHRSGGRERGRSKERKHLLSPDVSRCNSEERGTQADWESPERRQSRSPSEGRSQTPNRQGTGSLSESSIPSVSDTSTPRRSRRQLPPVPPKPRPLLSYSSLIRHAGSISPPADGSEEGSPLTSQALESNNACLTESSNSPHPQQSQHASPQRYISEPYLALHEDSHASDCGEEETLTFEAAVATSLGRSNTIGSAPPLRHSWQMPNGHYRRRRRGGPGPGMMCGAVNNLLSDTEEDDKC

| IC50 [1] [nM] | Cav2.3 (pIC50) [2] | IC50 [3] [nM] | Structure (SMILES) |
| --- | --- | --- | --- |
| 447 | 5.30 | – | CCN([C@@H](c1ccc(F)cc1)C(F)(F)F)S(=O)(=O)c1ccc(C#N)s1 [Example 4, (S)-5-cyano-N-ethyl-N-(2,2,2-trifluoro-1-(4-fluorophenyl)ethyl)thiophene-2-sulfonamide] |
| 1350 | 6.56 | – | CCN([C@H](c1ccc(F)cc1)C(F)(F)F)S(=O)(=O)c1ccc(C#N)s1 [Example 5, (R)-5-cyano-N-ethyl-N-(2,2,2-trifluoro-1-(4-fluorophenyl)ethyl)thiophene-2-sulfonamide] |
| 1910 | 5.16 | – | CCN([C@@H](c1ccc(F)cc1)C(F)(F)F)S(=O)(=O)c1ccc(C)s1 [Example 9, (S)—N-ethyl-5-methyl-N-(2,2,2-trifluoro-1-(4-fluorophenyl)ethyl)thiophene-2-sulfonamide] |
| 2570 | 5.41 | – | Cc1ccc(S(=O)(=O)N(C)[C@H](c2ccc(F)cc2)C(F)(F)F)s1 [Example 13, (R)—N,5-dimethyl-N-(2,2,2-trifluoro-1-(4-fluorophenyl)ethyl)thiophene-2-sulfonamide] |
| 708 | – | 794 | CCN(C(c1ccc(F)cc1)C(F)(F)F)S(=O)(=O)CC1CCOCC1 (stereo not shown) [Example 20, N-ethyl-1-(tetrahydro-2H-pyran-4-yl)-N-(2,2,2-trifluoro-1-(4-fluorophenyl)ethyl)methanesulfonamide] |
| 302 | 6.92 | – | CCN([C@H](c1ccc(F)cc1)C(F)(F)F)S(=O)(=O)C1CCOCC1 [Example 63, (R)—N-ethyl-N-(2,2,2-trifluoro-1-(4-fluorophenyl)ethyl)tetrahydro-2H-pyran-4-sulfonamide] |
| 72.4 | – | 35.5 | CN([C@H](c1ccc(C(F)(F)F)cc1)C(F)(F)F)S(=O)(=O)c1cncc(C#N)c1 [Example 68, (R)-5-Cyano-N-methyl-N-(2,2,2-trifluoro-1-(4-(trifluoromethyl)phenyl)ethyl)pyridine-3-sulfonamide] |
| 562 | 7.01 | – | CCN([C@H](c1ccc(F)cc1)C(F)(F)F)S(=O)(=O)c1cnc(C)nc1 [Example 77, (R)—N-ethyl-2-methyl-N-(2,2,2-trifluoro-1-(4-fluorophenyl)ethyl)pyrimidine-5-sulfonamide] |
| 67.6 | 6.95 | – | CCN([C@H](c1ccc(F)cc1)C(F)(F)F)S(=O)(=O)c1cncc(N2CCOCC2)c1 [Example 96, (R)—N-ethyl-5-morpholino-N-(2,2,2-trifluoro-1-(4-fluorophenyl)ethyl)pyridine-3-sulfonamide] |
| 148 | 7.20 | – | CCN(C(c1ccc(F)cc1)C(F)(F)F)S(=O)(=O)c1cncnc1 [Example 133, (R)—N-ethyl-N-(2,2,2-trifluoro-1-(4-fluorophenyl)ethyl)pyrimidine-5-sulfonamide] |
| 64.6 | 7.50 | – | CCN([C@H](c1ccc(F)cc1)C(F)(F)F)S(=O)(=O)c1ccn2ccnc2c1 [Example 136, (R)—N-ethyl-N-(2,2,2-trifluoro-1-(4-fluorophenyl)ethyl)imidazo[1,2-a]pyridine-7-sulfonamide] |
| 132 | – | 25.7 | CN([C@H](c1ccc(Cl)cc1)C(F)(F)F)S(=O)(=O)c1cncc(C#N)c1 [Example 171, (R)—N-(1-(4-chlorophenyl)-2,2,2-trifluoroethyl)-5-cyano-N-methylpyridine-3-sulfonamide] |
| 295 | 7.23 | – | CN([C@H](c1ccc(C(F)(F)F)cc1)C(F)(F)F)S(=O)(=O)c1cncnc1 [Example 172, (R)—N-methyl-N-(2,2,2-trifluoro-1-(4-(trifluoromethyl)phenyl)ethyl)pyrimidine-5-sulfonamide] |
| 380 | – | 178 | CN([C@H](c1ccc(Cl)cc1)C(F)(F)F)S(=O)(=O)c1ccc2nccn2c1 [Example 178, (R)—N-(1-(4-chlorophenyl)-2,2,2-trifluoroethyl)-N-methylimidazo[1,2-a]pyridine-6-sulfonamide] |

— patent US20250115569A1, “SULFONAMIDE COMPOUNDS FOR THE TREATMENT OF NEUROLOGICAL CONDITIONS” (LARIO THERAPEUTICS LIMITED, priority 2021, published 2025)
